# Source: patent US10913757B2, “Hydroxycinnamic derivatives, methods and uses thereof” (UNIVERSIDADE DO PORTO, priority 2016, dated 2021)
# How the values were obtained:
# [1] = ABTS radical cation scavenging activity (TAC assay); format: biochemical; settings: ethanol
# Description: In an embodiment, the AntiOxCINs antioxidant ranking activity hierarchy was established by in vitro non-cell methods. The selected total antioxidant capacity (TAC) assays (DPPH, ABTS and GO) involved the spectrophotometric measurement of the radical absorbance decrease as a result of an in situ radical deactivation by an antioxidant. Compounds with higher antioxidant activity display lower IC50 values. […] This decrease was attenuated/ameliorated by the increment of the spacer length and/or the introduction of additional hydroxyl group in the aromatic ring.
# The radical scavenging activity of AntiOxCINs was evaluated by means of total antioxidant capacity assays based on DPPH., ABTS.^+ and GO. radicals. All these methods involved the spectrophotometric measurement of the absorbance decrease resulting from radical (DPPH., ABTS.^+ or GO.) deactivation with an antioxidant. The results were expressed in IC50, which is defined as the minimum antioxidant concentration necessary to reduce the amount of radical by 50%. Antioxidant assays were performed in a multiplate reader (Powerwave XS Microplate Reader) of Bio-Tech instruments.
# In an embodiment, the ABTS.^+ scavenging activity was evaluated as follows: ethanolic solutions of the test compounds with increasing concentrations (range between 10 μM and 500 μM) were prepared. ABTS.^+ radical cation solution was obtained by addition of 150 mM aqueous potassium persulfate solution (163 μL) to 10 mL of 7 mM aqueous ABTS solution followed by storage in the dark at room temperature for 16 h (2.45 mM final concentration). The solution was then diluted in ethanol to reach the absorbance of 0.72±0.02. After addition of the compound (20 μL), in triplicate, to ABTS.^+ solution (180 μL) the spectrophotometric measurement was carried out each minute over 15 minutes. […] Dose-response curves were established for the determination of IC50 values. Data are means±SEM of three independent experiments.
# [2] = tested on: rat liver mitochondria (RLM); assay: Mitochondrial respiration of isolated RLM (Clark-type oxygen electrode); format: biochemical; settings: for effect on state 3 respiration: all tested concentrations (2.5-10 μM), FIG. 6B-H
# Experimental: In an embodiment, and as an example, AntiOxCINs and MitoQ toxicity effects on the mitochondrial bioenergetics, namely on RLM ΔΨ and mitochondrial respiration parameters, were measured. The […] represents the main component of the electrochemical gradient generated by mitochondrial respiration and accounts for more than 90% of the total available energy. For mitochondrial respiration assays, glutamate/malate (for complex I) and succinate (for complex II) were used as substrates. In addition, the mitochondrial oxidative phosphorylation coupling index, known as respiratory control ratio (RCR, state 3/state 4 respiration) and ADP/O index (the coupling between ATP synthesis and oxygen consumption) were also calculated. AntiOxCINs and MitoQ were tested at antioxidant-relevant concentrations, with 10 μM being the highest concentration.
# In an embodiment, the evaluation of AntiOxCINs functional mitochondrial toxicity profile was performed in rat liver mitochondria (RLM). […] The protein concentration was determined by the biuret assay using BSA as a standard.
# In an embodiment, the evaluation of AntiOxCINs effect on mitochondrial respiration was performed as follows: the respiration of isolated RLM was evaluated polarographically with a Clark-type oxygen electrode, connected to a suitable recorder in a 1 mL thermostated water-jacketed chamber with magnetic stirring, at 37° C.^1. […] Increasing concentrations of AntiOxCINs (2.5-10 μM) were added to the reaction medium containing respiratory substrates glutamate/malate (10 mM and 5 mM respectively) or succinate (5 mM) and RLM (1 mg) and allowed to incubate for a 5 min period prior to the assay. State 2 was considered as the respiration during the 5 min incubation time with AntiOxCINs. […] State 4 was determined after ADP phosphorylation finished. Subsequent addition of oligomycin (2 μg/ml) inhibited ATP-synthase and originated the oligomycin-inhibition respiration state. Finally, 1 μM FCCP was added to induce uncoupled respiration.
# [3] = Redox properties by differential pulse and cyclic voltammetry; format: physicochemical; settings: for reversibility of the oxidation reaction: cyclic voltammetry, physiological pH; for Ep (redox potential): physiological pH (7.4), voltammetry
# Experimental: In an embodiment, and as an example, AntiOxCINs redox properties were evaluated (Table 1). Redox potentials are correlated with the ability of an antioxidant to donate a hydrogen atom and/or an electron to a free radical.
# However, for pyrogallol derivatives (AntiOxCIN4, AntiOxCIN5 and AntiOxCIN7), a significant decrease in redox potentials was observed (Ep=0.034-0.057 V) (Table 1).
# The voltammograms presented a diffusion peak and an adsorption post-peak at a more anodic potential correspondent to the oxidation of dissolved and adsorbed forms of the compounds, respectively. The oxidation waves can be related to the oxidation process of the pyrogallol moiety. The cyclic voltammograms also show the presence of two overlapped anodic peaks. The anodic peaks appeared to correspond to irreversible processes as any distinct reduction wave was not seen on the cathodic sweep. The existence of the additional phenolic group in the pyrogallol systems, when compared with the catechol ones, seems to influence the stabilization of the semiquinone intermediate and in turn the oxidative mechanism.
# In an embodiment, the electrochemical analytical data was obtained using a computer controlled potentiostat Autolab PGSTAT302N (Metrohm Autolab, Utrecht, Netherlands). Generally, cyclic voltammetry (CV) data was acquired at a scan rate of 50 mVs^−1. Differential pulse voltammetry (DPV) results were acquired at a step potential of 4 mV, pulse amplitude of 50 mV and scan rate of 8 mVs^−1. The electrochemical signals were monitored by the General Purpose Electrochemical System (GPES) version 4.9, software package. All electrochemical experiments were performed at room temperature in an electrochemical cell that was placed in a Faraday cage in order to minimize the contribution of background noise to the analytical signal.
# In an embodiment, the process of evaluation of AntiOxCINs redox properties was conducted as follows: stock solutions of each compound (10 mM) were prepared by dissolving the appropriate amount in ethanol. The voltammetric working solutions were prepared in the electrochemical cell, at a final concentration of 0.1 mM. The […] supporting electrolyte was prepared by diluting […] to 100 mL. Voltammetric data was acquired in a three-electrode system consisting of a glassy carbon electrode (GCE, d=2 mm) as working electrode, a counter electrode of platinum wire and a saturated Ag/AgCl reference electrode. In an embodiment, the evaluation of AntiOxCINs lipophilic properties was performed as follows: the electrochemical cell was a four-electrode system with arrays of micro liquid-liquid interfaces (μlTIES) containing two Ag/AgCl reference electrodes and two counter electrodes of Pt, one in each phase. The microporous membrane was sealed with a fluorosilicone sealant (Dow Corning 730) onto a glass cylinder which was filled with 4.0 mL of the aqueous phase, where the aliquots of AntiOxCINs solutions were added. The membrane was then immersed into the organic phase contained in the cell. The organic phase reference solution (a 2 mM BTPPACI+2 mM NaCl aqueous solution) was mechanically stabilized The aqueous supporting electrolyte solution was a Tris-HCl buffer 10 mM pH 7.0.
SMILES,IC50 [1] [µM],effect on state 3 respiration [2],"ADP/O ([2]; glutamate/malate, 2.5 μM)","RCR (respiratory control ratio, state 3/state 4) ([2]; glutamate/malate, 2.5 μM)","ADP/O ([2]; glutamate/malate, 5 μM)","RCR (respiratory control ratio, state 3/state 4) ([2]; glutamate/malate, 5 μM)","ADP/O ([2]; glutamate/malate, 10 μM)","RCR (respiratory control ratio, state 3/state 4) ([2]; glutamate/malate, 10 μM)","ADP/O ([2]; succinate, 2.5 μM)","RCR (respiratory control ratio, state 3/state 4) ([2]; succinate, 2.5 μM)","ADP/O ([2]; succinate, 5 μM)","RCR (respiratory control ratio, state 3/state 4) ([2]; succinate, 5 μM)","ADP/O ([2]; succinate, 10 μM)","RCR (respiratory control ratio, state 3/state 4) ([2]; succinate, 10 μM)",reversibility of the oxidation reaction [3],"Ep (redox potential) ([3]; listed as AntiOxClN4, methanesulfonate) [V]","Ep (redox potential) ([3]; listed as AntiOxClN7, methanesulfonate) [V]",Ep (redox potential) ([3]; listed as AntiOxClN3) [V]
"CS(=O)(=O)[O-].O=C(/C=C/c1cc(O)c(O)c(O)c1)NCCCCCC[P+](c1ccccc1)(c1ccccc1)c1ccccc1 [AntiOxCIN4, (E)-(6-(3-(3,4,5-trihydroxyphenyl)prop-2-enamido)hexyl)triphenylphosphonium methanesulfonate]",12.2,decrease,2.4 ± 0.1,5.3 ± 0.8,2.2 ± 0.1,4.3 ± 0.7,2.2 ± 0.1,3.5 ± 0.5,1.4 ± 0.1,3.4 ± 0.3,1.3 ± 0.1,3.0 ± 0.34,1.3 ± 0.02,2.7 ± 0.4,irreversible oxidation reaction,0.034,,
"CS(=O)(=O)[O-].O=C(/C=C/c1cc(O)c(O)c(O)c1)NCCCCCCCCCC[P+](c1ccccc1)(c1ccccc1)c1ccccc1 [AntiOxCIN7, (E)-(10-(3-(3,4,5-trihydroxyphenyl)acrylamido)decyl)triphenylphosphonium methanesulfonate]",7.5,increase,2.8 ± 0.3,3.6 ± 0.2,2.4 ± 0.1,3.5 ± 0.3,2.6 ± 0.1,3.3 ± 0.3,1.8 ± 0.2,4.1 ± 0.4,1.8 ± 0.2,3.1 ± 0.2,1.7 ± 0.2,3.7 ± 0.3,irreversible oxidation reaction,,0.057,
"CS(=O)(=O)[O-].O=C(/C=C/c1ccc(O)c(O)c1)NCCCCCCCC[P+](c1ccccc1)(c1ccccc1)c1ccccc1 [AntiOxCIN3, (E)-(8-(3-(3,4-dihydroxyphenyl)acrylamido)octyl)triphenylphosphoniummethanesulfonate]",27.9,increase,2.4 ± 0.2,3.8 ± 0.5,2.7 ± 0.2,3.5 ± 0.5,2.4 ± 0.1,3.3 ± 0.3,1.6 ± 0.1,4.1 ± 0.5,1.8 ± 0.3,4.7 ± 0.7,1.6 ± 0.1,3.9 ± 0.6,reversible reaction,,,0.170
